Source: patent US9909104B2, “Generating definitive endoderm and pancreatic progenitor cells” (The J. David Gladstone Institutes, a testamentary trust …, priority 2013, dated 2018)

Columns and labels:
cPE cells = assay: Maturation of cPE cells into C-peptide positive beta-like cells in vitro; format: cell-based, human; settings: supplemented individually to basal pancreatic differentiation media
Source text: Full maturation towards glucose responsive cells is optimally illustrated by transplantation of in vitro differentiated pancreas endoderm progenitor cells into immune compromised mice. […] While C-peptide positive cells expressing high levels of PDX1 were consistently observed after 10-14 days in culture (FIG. 11B), the relatively low number of cells (˜0.5%) indicated further optimization of conditions may improve the frequency of conversion to functional beta-like cells. Chemical compounds able to promote differentiation of definitive endoderm (Borowiak et al. (2009)) and PDX1^+ progenitors (Chen et al. (2009) have been identified previously. However, molecules directing the final steps of differentiation into beta-like cells have not been uncovered, likely due to difficulties in generating and maintaining sufficient numbers of differentiation-competent pancreatic endodermal progenitor cells.
A chemical screen was performed with the intent of identifying factors that would result in the more efficient development of C-peptide positive cells from expanded cPE cells.

[1] = test system: histone deacetylases (HDACs); settings: isoform not stated; read-out: IC50 (histone deacetylase); cited from earlier work
[2] = test system: HDAC activity in HeLa extracts; settings: read-out: IC50 for inhibition of HDAC activity; cited from earlier work
presenilase activity = settings: At higher concentrations (20-4000/1); cited from earlier work
γ-secretase = settings: total β-amyloid; cited from earlier work
SAPK2/p38 = SAPK2/p38 (Homo sapiens, UniProt Q16539); settings: CK1 and ALK5 inhibitor; cited from earlier work
SAPK2/p38, sequence (Q16539 whole entry): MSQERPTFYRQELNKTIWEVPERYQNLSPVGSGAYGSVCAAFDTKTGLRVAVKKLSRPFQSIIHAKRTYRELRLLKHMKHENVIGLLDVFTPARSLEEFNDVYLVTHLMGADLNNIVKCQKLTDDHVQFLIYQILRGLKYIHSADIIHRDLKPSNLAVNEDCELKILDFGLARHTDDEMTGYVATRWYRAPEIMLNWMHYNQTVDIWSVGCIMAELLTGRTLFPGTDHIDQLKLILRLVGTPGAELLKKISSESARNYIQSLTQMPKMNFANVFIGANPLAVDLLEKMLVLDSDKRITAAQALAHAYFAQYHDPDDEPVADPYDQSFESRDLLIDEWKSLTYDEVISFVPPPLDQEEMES

[3] = test system: Human foreskin fibroblasts; assay: Conversion of human fibroblasts into definitive endodermal progenitor (cDE) colonies
[4] = test system: definitive endoderm-like cells (DELCs); assay: Induction of DELCs into Pdx1+/Nkx6.1+ pancreatic progenitor-like cells (step III); format: cell-based, mouse; settings: screen of 400 compounds, confirmed in larger-well cultures
Procedure: At the end of treatment, lineage specific markers were analyzed by immunostaining and/or real-time PCR.
Primary antibodies used were Sox17 (R&D), Foxa2 (Millipore), Pdx1 (R&D), Hnf6 (Santa Cruz), Pax6 (Covance), Sox9 (Santa Cruz), Nkx6.1 (Developmental Studies Hybridoma Bank), Insulin (Dako), Glucagon (Sigma), Somatostatin (Abcam), Amylase (Abcam), and CK19 (Abcam). Nuclei were visualized by DAPI (Sigma-Aldrich) staining Images were captured using a Nikon Eclipse TE2000-U microscope.
An available drug collection of 400 compounds in the 48-well format was screened to identity small molecules that induce high percentages of Pdx1^+/Nkx6.1^+ cells in DELC populations. Med-III medium (DMEM supplemented with 1×B27, 2 mM Glutamax) was used as the basal condition and double staining of Pdx1 and Nkx6.1 at 4 days post-induction was used as the readout.
Induction of Pdx1 and Nkx6.1 expression by small molecules is referred herein to the “third step” (step III) of pancreatic induction.

[5] = test system: Dox-inducible secondary mouse embryonic fibroblasts (MEFs); assay: Direct reprogramming of secondary MEFs into definitive endoderm-like cells (Sox17/Foxa2); format: cell-based; settings: 1 μM Bix-01294 D0-D6; 280 μM pVc D0-D12
Procedure: Dox-inducible secondary mouse embryonic fibroblasts (MEFs) (cells at passage 3-4 were regularly used) were plated on Matrigel-coated culture dishes at a cell density of 1×10^4 cells/cm^2. Cells were cultured in MEF medium (Dulbecco's modified Eagle's medium with 10% fetal bovine serum and 2 mM Glutamax) for an additional day. The medium was then changed to Med I (Knock-out DMEM with 10% knock-out serum replacer, 5% FBS, 2 mM Glutamax, 0.1 mM non-essential amino acids (NEAA), and 0.055 mM β-mercaptoethanol) supplemented with 4 μg/ml Dox, 50 ng/ml Activin A and 1 mM LiCl for the indicated time. […] All reagents were purchased from Invitrogen if not specified, and all cytokines were from R&D Systems. […]
Total RNA was extracted using the RNeasy Plus Mini Kit in combination with QIAshredder (Qiagen). […] Expression of pluripotency and lineage-specific marker genes was analyzed by real-time PCR with iQ SYBR Green Supermix (Bio-Rad). […]
To test this hypothesis, conditions were evaluated in which definitive endoderm induction factors (Activin/Li) were added to fibroblasts either after (Approach-I) or during (Approach II) iPSC factor expression, using Sox17 and Foxa2 expression as a measure of DELC induction (FIG. 1A).

[6] = test system: pancreatic progenitor-like cells (PPLCs); assay: Maturation of PPLCs into pancreatic-like cells (step IV, day 25); format: cell-based, mouse; settings: 5 μM SB203580 or 280 μM pVc used individually, D16-D25, day 25
Procedure: The pancreatic progenitor-like cells generated as described herein were treated with Med-IV medium containing laminin, nicotinamide, and B27 etc. as previously reported (Schroeder et al., 2006) to determine whether those PPLCs can be further differentiated into mature pancreatic like cells. After 9 days of culture in this medium, a small population (about 0.5%) of insulin and C-peptide double-positive cells was detected.
To improve efficiency of pancreatic maturation, the inventors' drug collection was further screened in a “fourth” step (step IV) to identify compounds that increase the percentage of cells that express insulin and Pdx1 on day 25.

secondary MEF cells = assay: Small molecules in first/second reprogramming steps, Pdx1/Nkx6.1 double staining on day 16; format: cell-based, mouse; settings: 1 μM Bix-01294 D0 to D6; 280 μM pVc D0 to D12; readout day 16
Procedure: The inventors then hypothesized that overlapping lineage-specific patterning conditions based on small molecules with early reprogramming would enhance pancreatic induction. To this end, further screens of the inventors' drug collection were performed during the first- and second-step inductions, with double staining of Pdx1 and Nkx6.1 at the end of the third step (day 16) as a readout. […] In particular, 1 μM Bix-01294 (a G9a histone methyltransferase inhibitor), when added from D0 to D6, and 280 μM pVc, when added from D0 to D12, increased the number of Pdx1+/Nkx6.1+ colonies to about 3 fold and 4 fold respectively (FIG. 4D-4E).

COC(=O)C1=C(C)NC(C)=C([N+](=O)[O-])C1c1ccccc1C(F)(F)F (stereo not drawn) [BayK-8644, 3-pyridinecarboxylic acid, 1,4-dihydro-2,6-dimethyl-5-nitro-4-(2-(trifluoromethyl)phenyl), methyl ester]
effect on percentage of C-peptide positive cells (cPE cells): effective in increasing

CC(/C=C/C(=O)NO)=C\[C@@H](C)C(=O)c1ccc(N(C)C)cc1 [Trichostatin A, (R,2E,4E)-6-(4-(dimethylamino)benzoyl)-N-hydroxy-4-methylhepta-2,4-dienamide]
IC50 [1]: ~1.8 nM

Nc1ccccc1NC(=O)CCCCCCC(=O)Nc1ccccc1 [BML-210, N1-(2-aminophenyl)-N8-phenyl-octanediamide]
IC50 [2]: ~80000 nM

O=C1O[C@H]([C@@H](O)CO)C(O)=C1O [Vitamin C]
effect on percentage of C-peptide positive cells (cPE cells): effective in increasing

C[C@H](NC(=O)Cc1cc(F)cc(F)c1)C(=O)N[C@H]1N=C(c2ccccc2)c2ccccc2N(C)C1=O [Compound E]
effect on presenilase activity (presenilase activity): only weakly affects | IC50 (γ-secretase): 0.3 nM | effect on percentage of C-peptide positive cells (cPE cells): effective in increasing

CC1NC(=O)C(C)NC(=O)C2CCCN2C(=O)C(CCCCCCC(=O)C2CO2)NC1=O [HC Toxin, (6R,9S,14aR)-3,6R-dimethyl-9S-(7-((S)-oxiran-2-yl)-7-oxoheptyl)decahydropyrrolo[1,2-a][1,4,7,10]tetraazacyclododecine-1,4,7,10-tetranone]
IC50 [1]: 30 nM

NC(=O)c1ccc(-c2nc(-c3ccc4c(c3)OCCO4)c(-c3ccccn3)[nH]2)cc1 [D 4476, 4-[4-(2,3-Dihydro-1,4-benzodioxin-6-yl)-5-(2-pyridinyl)-IH-imidazol-2-yl]benzamide]
selectivity over SAPK2/p38 (SAPK2/p38): greater than 20 fold

CCNC(=O)[C@H]1O[C@@H](n2cnc3c(N)ncnc32)C(O)C1O (stereo partly drawn) [NECA, 5′-N-ethylcarboxamidoadenosine]
further increase of conversion rate over improved condition (NaB, Par, RG) ([3]; FOXA2 positive colonies day 28): 2 fold | increase over the basal protocol ([3]; NECA together with NaB, Par, RG108): 5 fold | FOXA2 and SOX17 double-positive cDE colonies from 400,000 human fibroblasts ([3]; optimized condition (NaB, Par, RG108, NECA)): approximately fifty

Nc1ccccc1NC(=O)c1ccc(CNC(=O)OCc2cccnc2)cc1 [MS-27-275, pyridin-3-ylmethyl-N-[[4-[(2-aminophenyl)carbamoyl]phenyl]methyl]carbamate]
IC50 [1]: 100 to 1000 nM

Cc1c(C(=O)Nc2ccc(N3C[C@@H](C)O[C@@H](C)C3)nc2)cccc1-c1ccc(OC(F)(F)F)cc1 [LDE225]
hit confirmation: increase of Pdx1 and/or Nkx6.1 expression [4]: Confirmed hits

2-phospho-L-ascorbic acid trisodium salt [pVc]
numbers of Sox17 and Foxa2 single positive and double positive cells [5]: no significant influence | hit confirmation: increase of Pdx1 and/or Nkx6.1 expression [4]: Confirmed hits | number of insulin+/Pdx1+ double-positive cells [6]: significantly increased | number of Pdx1+/Nkx6.1+ colonies (secondary MEF cells): ~4 fold

Nc1ccccc1NC(=O)c1ccc(CNc2nccc(-c3cccnc3)n2)cc1 [MGCD0103, N-(2-aminophenyl)-4-[[(4-pyridin-3-ylpyrimidin-2-yl)amino]methyl]benzamide]
IC50 [1]: ~100 nM

COc1cc2nc(N3CCCN(C)CC3)nc(NC3CCN(Cc4ccccc4)CC3)c2cc1OC [Bix-01294]
numbers of Sox17 and Foxa2 single positive and double positive cells [5]: no significant influence | number of Pdx1+/Nkx6.1+ colonies (secondary MEF cells): about 3 fold

C[S+]([O-])c1ccc(-c2nc(-c3ccc(F)cc3)c(-c3ccncc3)[nH]2)cc1 (stereo not drawn) [SB203580, 4-(4-fluorophenyl)-2-(4-methylsulfinylphenyl)-5-(4-pyridyl)-1H-imidazole]
number of insulin+/Pdx1+ double-positive cells [6]: significantly increased

CC1(C)NC(=O)C(CCCCCC(=O)[C@H]2CO2)NC(=O)C2CCCN2C(=O)[C@@H](Cc2ccccc2)NC1=O (stereo partly drawn) [Chlamydocin, (3R)-3-benzyl-6,6-dimethyl-9-[6-[(2R)-oxiran-2-yl]-6-oxohexyl]-1,4,7,10-tetrazabicyclo[10.3.0]pentadecane-2,5,8,11-tetrone]
IC50 [1]: ~0.15 nM

Cc1cccc(-c2nn(C(=S)Nc3ccccc3)cc2-c2ccnc3ccccc23)n1 [A83-01, 3-(6-Methyl-2-pyridinyl)-N-phenyl-4-(4-quinolinyl)-1H-pyrazole-1-carbothioamide]
hit confirmation: increase of Pdx1 and/or Nkx6.1 expression [4]: Confirmed hits
